# Measured values reported in patent US11103603B2, “18F-labeled compounds for PET imaging and uses thereof” (The University of North Carolina at Chapel Hill, priority 2016, dated 2021).
# Assays:
# IDO1 enzyme = IDO1 enzyme (Homo sapiens, UniProt P14902); test: IDO1 enzyme assay (substrate test, absorbance at 490 nm); format: biochemical; conditions: for substrate to IDO1 enzyme: FIG. 7A; for absorbance at 490 nm: reaction containing the compound, results from 3 independent assays, control reaction had no absorbance
# Sequence of IDO1 enzyme (P14902 whole entry, species assumed): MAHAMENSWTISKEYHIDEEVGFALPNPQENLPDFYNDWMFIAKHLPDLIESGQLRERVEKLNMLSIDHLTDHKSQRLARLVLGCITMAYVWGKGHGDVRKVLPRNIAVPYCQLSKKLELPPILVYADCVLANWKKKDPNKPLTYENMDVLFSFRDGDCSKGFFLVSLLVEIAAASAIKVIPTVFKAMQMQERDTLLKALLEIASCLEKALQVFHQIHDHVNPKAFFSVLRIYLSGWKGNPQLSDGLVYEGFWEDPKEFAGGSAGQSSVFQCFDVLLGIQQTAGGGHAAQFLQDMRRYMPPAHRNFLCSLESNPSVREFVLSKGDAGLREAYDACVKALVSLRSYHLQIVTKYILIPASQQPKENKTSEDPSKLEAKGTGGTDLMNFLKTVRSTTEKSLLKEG
# Procedure: (§1) (D) Decay-corrected whole-body small PET images of B16F10 melanoma after 30 min injection of 5-[^18]F-AMT.
# (§2) Among the agents synthesized, 5-[^18F]F-AMT was first evaluated in vitro. In order to ensure that 5-[^18F]F-AMT could be used for IDO imaging, cell- and enzyme-based assays were performed. It was first tested whether 5-[^18F]F-AMT is a substrate for the IDO enzyme, and the result compared with that of the natural substrate Trp and a known IDO agent, α-methyl-L-tryptophan (AMT). […] Therefore, a cell-based assay was performed to further evaluate the agents. The uptake of 5-[^18F]F-AMT in IFNγ-treated cells was 3.474±0.6451% compared with 0.50±0.28% in control cells after 1 h incubation (p<0.001) (FIG. 7C). […] The serotonin pathway is a competitive metabolic route for Trp and its derivatives. In the first step Tph adds a hydroxyl group to position 5 of the indole ring. It was evaluated whether the introduction of fluorine at the 5-position would affect metabolism by Tph. As shown in) (FIG. 7B), immediately after adding L-Trp to the reaction system containing the tryptophan hydroxylase enzyme, the fluorescence signal increased from a baseline value of −0.266 to 40.885 and reached a peak value 58.350 at 26 min. Immediately after adding AMT to the reaction system, the fluorescence signal increased from a baseline value of −0.312 to 21.145 and reached a peak value of 36.607 at 34 min.
# [1] = test system: tryptophan hydroxylase enzyme; test: Protein based tryptophan hydroxylase (Tph) assay, fluorescence signal; format: biochemical; conditions: for fluorescence signal immediately after adding compound: immediately after adding to reaction system containing tryptophan hydroxylase; for fluorescence signal peak value: peak of time course; for substrate quality for Tph: compared with Trp and AMT
# Procedure: as §2
# B16F10 melanoma = test: Small animal PET imaging of B16F10 melanoma tumor xenograft mouse model; format: in vivo; conditions: 200 μCi injected, image at 30 min
# Procedure: as §1
# FIGS. 8A-8B show (A) decay-corrected whole-body small PET images of B16F10 melanoma 0.5 h, 1.4 h, and 20 h after injection of ^124I-AMT; (B) decay-corrected whole-body small PET images of B16F10 melanoma 50 min after injection of ^18F—N-Me-Trp.
# A tumor xenograft mouse model was produced with a B16F10 melanoma. 200 μCi of 5-^18F-AMT was injected and a PET image was obtained at 30 min. (FIG. 7D).
# To test the effectiveness of therapeutic compounds of the invention, a tumor […] xenograft mouse model was produced with a B16F10 melanoma. 1 (FIG. 8A) or ^18F—N-Me-Trp (FIG. 8B) were injected in the tail vein and PET images obtained.
# HeLa cells = test: Cell uptake of tracer in HeLa cells with or without IFNγ treatment and NLG919; format: cell-based
# Procedure: as §1, §2
Structure (SMILES),substrate to IDO1 enzyme (IDO1 enzyme),absorbance at 490 nm (IDO1 enzyme),time at which peak fluorescence was reached [1] [min],fluorescence signal immediately after adding compound [1],fluorescence signal peak value [1],PET image of tumor (B16F10 melanoma),"increase of HeLa cells uptake after IFN-γ treatment (HeLa cells; HeLa cells, IFN-γ treated vs untreated) [times]",uptake in IFNγ-treated cells incubated with NLG919 (HeLa cells; IFNγ-treated cells + IDO1 inhibitor NLG919) [%],"uptake in IFNγ-treated cells (HeLa cells; IFNγ-treated cells, 1 h incubation) [%]","uptake in control cells (HeLa cells; control cells (no IFNγ), 1 h incubation) [%]",substrate quality for Tph [1]
"N[C@@H](Cc1c[nH]c2ccccc12)C(=O)O [L-Trp, L-tryptophan]",substrates,0.21±0.01,26,40.885,58.350,,,,,,
"C[C@](N)(Cc1c[nH]c2ccccc12)C(=O)O [AMT, α-methyl-L-tryptophan]",substrates,0.19±0.02,34,21.145,36.607,,,,,,
CC(N)(Cc1c[nH]c2ccc([18F])cc12)C(=O)O (stereo not shown) [5-[^18F]F-AMT],,,,,,clearly shows the tumor,7,0.88±0.12,3.474±0.6451,0.50±0.28,worse substrate
CC(N)(Cc1c[nH]c2ccc(F)cc12)C(=O)O (stereo not shown) [5-F-AMT],substrates,0.16±0.03,25,5.635,8.176,,,,,,not a good substrate
